# Where two headings read alike, the source gives them in different places.
# Assay: Pharmacokinetic study in rats after intragastric and intravenous administration (plasma, UHPLC-MS/MS)
# Type: in vivo, Sprague-Dawley rats
# Conditions: for Tmax: po, 25 mg/kg; for AUC(0-t): n = 10; for MRT last: read-out: MRT(0-t)
# Protocol: The pharmacokinetic study was performed using oral solutions of MRTX1133 in 5% carboxymethyl-cellulose sodium (CMC-Na) at a concentration of 2.5 mg mL^-1 (the dose was 25 mg kg^-1 and 10 mL kg^-1). The intravenous solution was prepared at a concentration of 5 mg mL^-1 in polyethylene glycol 400 and dimethyl sulfoxide (8%). Twenty rats were randomly divided into two groups (ten rats each group), the rats in one group were given MRTX1133 by intravenous administration at 5 mg kg^-1 and the other group by intragastric administration at 25 mg kg^-1. Rats were slightly anesthetized with diethyl ether, blood samples were collected (approximately 150 µL) from the suborbital vein, and placed into heparinized tubes at 0.17 h, 0.33 h, 0.5h, 0.75 h, 1 h, 1.5 h, 2 h, 3 h, 4 h, 6 h, 8 h, 10 h, and 24 h after treatment. The rats were treated with saline at the same volume by gavage and used as control. Blood samples were centrifuged at 20,800 g for 10 min (at 4°C) and stored at - 80°C.
# The DAS 3.2 software package (edited by the Chinese Mathematical Pharmacology Society) was used for the pharmacokinetic data analysis and the non-compartmental model was applied. The oral bioavailability (F) of MRTX1133 was measured by comparing each area under the curve (AUC) 0-t value after intragastric (i.g.) and intravenous (i.v.) administration according to the equation: F = (AUC i. g./Dose i. g.)/(AUC i. v./Dose i. v.).
# [1] = Sprague-Dawley, rat plasma, intravenous 5 mg/kg
# [2] = Sprague-Dawley, rat plasma, oral 25 mg/kg
smiles,measurement,setting,value
C#Cc1c(F)ccc2cc(O)cc(-c3ncc4c(N5CC6CCC(C5)N6)nc(OC[C@@]56CCCN5C[C@H](F)C6)nc4c3F)c12 [MRTX1133],bioavailability,"Sprague-Dawley, plasma, oral, rat, AUC(0-t) i.g. 25 mg/kg vs i.v. 5 mg/kg, read-out: F (oral bioavailability)",2.92%
same,CL/F,"Sprague-Dawley, plasma, rat, oral 25 mg/kg, read-out: CL/F (converted)",199 L/h/kg
same,Tmax,"Sprague-Dawley, rat, plasma, rat plasma, oral 25 mg/kg, read-out: Tmax",0.6 ± 0.13 h
same,Tmax,"Sprague-Dawley, rat, plasma, rat plasma, oral 25 mg/kg, read-out: time of peak plasma concentration (converted)",0.75 h
same,half-life,[1],2.88 ± 1.08 h
same,AUC(0-t),[1],928 ± 192 ng·h/mL
same,MRT last,[1],1.34 ± 0.6 h
same,Cmax,[2],130 ± 25.2 ng/mL
same,half-life,[2],1.12 ± 0.46 h
same,MRT last,[2],1.25 ± 0.18 h
same,AUC(0-t),"Sprague-Dawley, rat plasma, oral (intragastric) 25 mg/kg",136 ± 46.5 ng·h/mL
same,plasma concentration 8 h after intravenous administration,"rat plasma, intravenous 5 mg/kg, 8 h",bleow the limit of quantitation
same,plasma concentration 6 h after oral administration,"rat plasma, oral 25 mg/kg, 6 h",bleow the limit of quantitation
same,CL/F,"rat, intravenous 5 mg/kg",5.14 ± 1.58 L/h/kg
same,V/F,"rat, intravenous 5 mg/kg",22.83 ± 11.67 L/kg
same,V/F,"rat, oral 25 mg/kg",318.99 ± 157.43 L/kg

# — publication PMC11693508, “Pharmacokinetics, bioavailability, and tissue distribution of MRTX1133 in rats using UHPLC-MS/MS” (Frontiers in Pharmacology, 2024)
